{"source": "patent US20100062478A1", "about": "“DRUG FOR ANALYSIS OF WATER TRANSPORT FUNCTION OF MEMBRANE PROTEIN IN BIOLOGICAL TISSUE” (priority 2007, published 2010)", "test_system": "aquaporin", "experiment": "Immersion of round radish slices in red food coloring water (Reference Example 1)", "procedure": "Using radish that was cut into round slices with thicknesses of 6-10 cm, the bottom faces of the round slices were immersed in red food coloring water for 1-16 hours, As the red food coloring, Red No. 102 (chemical name: 7-hydroxy-8-(4-sulfonaphthylazo)-1,3-naphthylenedisulfonic acid=trisodium salt=1½ hydrate) was used.", "data": [{"smiles": "O.O.O.O=S(=O)([O-])c1cc(S(=O)(=O)[O-])c2c(N=Nc3ccc(S(=O)(=O)[O-])c4ccccc34)c(O)ccc2c1.O=S(=O)([O-])c1cc(S(=O)(=O)[O-])c2c(N=Nc3ccc(S(=O)(=O)[O-])c4ccccc34)c(O)ccc2c1.[Na+].[Na+].[Na+].[Na+].[Na+].[Na+]", "note": "[Red No. 102, 7-hydroxy-8-(4-sulfonaphthylazo)-1,3-naphthylenedisulfonic acid=trisodium salt=1½ hydrate]", "values": [{"measurement": "permeation of red food coloring into radish tissue", "setting": "bottom face of round slices immersed, one hour elapsed", "result": "had soaked into the connective tissue at the periphery of the round slices from the bottom face"}, {"measurement": "permeation of red food coloring into radish tissue", "setting": "round slices immersed for 16 hours", "result": "sites permeated by red food coloring water were not found anywhere other than the connective tissue"}]}]}
